The source of these data is patent US20050147640A1, “Noctuid attractant composition” (priority 2002, published 2005).

In this test the test system is Noctuidae. The test is described as follows: Sticky board trap comparison of attractant blends beside cotton crops. The class given is in vivo. An excerpt: Comparisons of a range of attractant blends were made using sticky board traps adjacent to cotton crops on the Darling Downs region of Queensland, Australia. This experimental set up allowed comparison of attractants in the presence of the crop volatiles without confusing factors such as the effect of non-volatile feeding stimulants.
A series of rectangular boards 1.2 metres high×1.5 metres wide were placed approximately 1 metre outside the edge of a cotton field at spacings of 50 metres. The boards were suspended at a height of 1 metre above the ground using star posts. Four 100 mm diameter round holes were made in the centre of the boards and cotton wicks containing experimental attractant mixes were suspended in these holes using a paper clip. The boards were coated on both sides with 500 to 700 grams of polybutene sticker so insects attracted to the experimental volatiles would become trapped on the boards. Impregnated wicks were placed in the traps mid afternoon and traps were checked after 48 hours.

As to `O=CCc1ccccc1` [PAA, Phenylacetaldehyde], for the setting “Table 3, total of all Noctuidae, 3.12 mg of each ingredient per sticky board, traps checked after 48 hours”, the “Mean (Moths/board)” value is 1.00 Moths/board. Also, under “Table 3 experiment, sticky traps”, the “Comparison of moth catch in words” value is “not significantly attractive”.
